Among the data in ChEMBL document CHEMBL3407424, “Synthesis and evaluation of new α-methylene-γ-lactone carbamates with NO production inhibitory effects in lipopolysaccharide-induced RAW 264.7 macrophages” (Eur J Med Chem, 2015) are IC50, inhibition and CC50 values, retold here.

A value given as a limit tells only on which side of the number the result lay.

Series [1] relates to RAW264.7. Put plainly: Antiinflammatory activity against mouse RAW264.7 cells assessed as inhibition of LPS-induced NO production incubated for 30 mins by microplate reader analysis. The series is classed as functional, cell-based. The note with it: RAW264.7, 0.5 h.
The subject of series [2] is RAW264.7. Description: Antiinflammatory activity against mouse RAW264.7 cells assessed as inhibition of LPS-induced NO production at 25 uM incubated for 30 mins by microplate reader analysis. Format: functional. The note with it: RAW264.7, 0.5 h.
A short description of series [3]: Cytotoxicity against mouse RAW264.7 cells after 18 hrs by MTT assay. Format: cell-based. (Tetrazolium assays rely on reduction of a dye to a coloured formazan, in cell work by metabolically active cells.)

With `C=C1C(=O)OC[C@H]1CCOC(=O)Nc1ccc(C(C)C)cc1`, the IC50 in the series with RAW264.7 [1] is 0.34 µM. Moreover, the inhibition at 25 µM in the series with RAW264.7 [2] is > 94%. This compound also showed a CC50 at 18 h in series [3] of 12.4 µM.
On the same counts, the results for `C=C1C(=O)OC[C@H]1CCOC(=O)Nc1ccc(C)c(C)c1` are 1.09 µM, > 94% and 18.2 µM.
On the same counts, the results for `C=C1C(=O)OC[C@@H]1CCOC(=O)Nc1ccc(CC)cc1` are 1.26 µM, > 94% and 7.58 µM.
On the same counts, the results for `C=C1C(=O)OC[C@H]1CCOC(=O)Nc1ccc(CCCC)cc1` are 0.62 µM, > 94% and 15.9 µM.
Regarding `C=C1C(=O)OC[C@@H]1CCOC(=O)Nc1ccc(C(=O)OCCCC)cc1`, in the series with RAW264.7 [1], the IC50 came out at 0.86 µM. In addition, in the series on RAW264.7 [2], the inhibition at 25 µM was > 94%. In addition, it took 12.7 µM to reach half-maximal cytotoxicity in series [3] (CC50 at 18 h).
`C=C1C(=O)OC[C@H]1CCOC(=O)Nc1cc(C(F)(F)F)cc(C(F)(F)F)c1`: the IC50 in the series on RAW264.7 [1] worked out at 0.96 µM. Further, the inhibition at 25 µM in the series on RAW264.7 [2] was > 94%. The midpoint of cytotoxicity in series [3], the CC50 at 18 h, lay at 13.9 µM.
The like results for `C=C1C(=O)OC[C@@H]1CCOC(=O)Nc1ccc(Cl)cc1` were, in that order, 1.07 µM, > 94% and 10.3 µM.
The like results for `C=C1C(=O)OC[C@@H]1CCOC(=O)Nc1ccc(C(C)C)cc1` were, in that order, 1.58 µM, > 94% and 15.3 µM.
On the same counts, the results for `C=C1C(=O)OC[C@H]1CCOC(=O)Nc1ccc(OC)cc1` are 0.71 µM, > 94% and 12.4 µM.
Turning to `C=C1C(=O)OC[C@H]1CCOC(=O)Nc1c(C)cccc1C(C)C`, in the series with RAW264.7 [1], the half-maximal inhibitory concentration (IC50) worked out at 1.94 µM. Also, the inhibition at 25 µM with RAW264.7 [2] is 80.7%. For the same compound, in series [3], the CC50 at 18 h amounted to 22.2 µM.
The like results for `C=C1C(=O)OC[C@H]1CCOC(=O)Nc1ccc(Cl)cc1` were, in that order, 0.39 µM, > 94% and 9.14 µM.
For `C=C1C(=O)OC[C@H]1CCOC(=O)Nc1ccc(F)cc1F`, the IC50 in the series with RAW264.7 [1] was found to be 0.33 µM. The inhibition at 25 µM in the series with RAW264.7 [2] was > 94%. Besides, in series [3], the CC50 at 18 h is 24.5 µM.
Take `C=C1C(=O)OC[C@H]1CCOC(=O)Nc1ccccc1F`: in the series on RAW264.7 [1], the half-maximal inhibitory concentration (IC50) amounted to 0.35 µM. The inhibition at 25 µM in the series on RAW264.7 [2] was > 94%. Besides, the CC50 at 18 h in series [3] was 17.4 µM.
On the same counts, the results for `C=C1C(=O)OC[C@@H]1CCOC(=O)Nc1ccccc1F` are 0.69 µM, > 94% and 24.2 µM.
On to `C=C1C(=O)OC[C@@H]1CCOC(=O)Nc1ccc(OC)cc1`, for which the IC50 in the series on RAW264.7 [1] turned out to be 1.09 µM. The inhibition at 25 µM in the series on RAW264.7 [2] is > 94%. The compound also registered a CC50 at 18 h in series [3] of 11.9 µM.
The like results for `C=C1C(=O)OC[C@H]1CCOC(=O)Nc1ccc(CC)cc1` were, in that order, 0.84 µM, > 94% and 11.3 µM.
On the same counts, the results for `C=C1C(=O)OC[C@@H]1CCOC(=O)Nc1cc(C(F)(F)F)cc(C(F)(F)F)c1` are 0.8 µM, > 94% and 12.4 µM.
On the same counts, the results for `C=C1C(=O)OC[C@H]1CCOC(=O)Nc1ccc(C(=O)OCCCC)cc1` are 0.43 µM, > 94% and 8.94 µM.
For the compound `C=C1C(=O)OC[C@H]1CCOC(=O)Nc1ccc(Br)cc1`, the IC50 with RAW264.7 [1] was 0.35 µM. Moreover, the inhibition at 25 µM with RAW264.7 [2] was > 94%. The compound further returned a CC50 at 18 h in series [3] of 8.47 µM.
Turning to `C=C1C(=O)OC[C@@H]1CCOC(=O)Nc1ccc(C)c(C)c1`, the IC50 in the series with RAW264.7 [1] was found to be 1.45 µM. Besides, the inhibition at 25 µM in the series with RAW264.7 [2] was > 94%. This compound registered a CC50 at 18 h in series [3] of 13.7 µM.
The like results for `C=C1C(=O)OC[C@H]1CCOC(=O)Nc1ccc(I)cc1` were, in that order, 0.49 µM, > 94% and 12.8 µM.
On the same counts, the results for `C=C1C(=O)OC[C@@H]1CCOC(=O)Nc1cccc(Br)c1` are 0.84 µM, > 94% and 17.7 µM.
The like results for `C=C1C(=O)OC[C@@H]1CCOC(=O)Nc1c(C)cccc1C(C)C` were, in that order, 5.98 µM, 39.5% and > 50 µM.
In the case of `C=C1C(=O)OC[C@@H]1CCOC(=O)Nc1cc(C)cc(C)c1`, in the series with RAW264.7 [1], the concentration for half-maximal inhibition (IC50) was determined as 1.24 µM. The inhibition at 25 µM in the series on RAW264.7 [2] is > 94%. The compound also came in with a CC50 at 18 h in series [3] of 13.6 µM.
The like results for `C=C1C(=O)OC[C@H]1CCOC(=O)Nc1cc(C)cc(C)c1` were, in that order, 0.48 µM, > 94% and 12.7 µM.
`N=C(N)NN` [PIMAGEDINE]: the 50% inhibitory concentration (IC50) in the series with RAW264.7 [1] amounted to 7.29 µM.
On to `C=C1C(=O)OC[C@H]1CCOC(=O)Nc1ccccc1`, for which the IC50 in the series with RAW264.7 [1] is 0.39 µM. Besides, in the series with RAW264.7 [2], the inhibition at 25 µM is > 94%. The compound further returned a CC50 at 18 h in series [3] of 14.8 µM.
The like results for `C=C1C(=O)OC[C@@H]1CCOC(=O)Nc1ccc(CCCC)cc1` were, in that order, 1.23 µM, > 94% and 9.95 µM.
On the same counts, the results for `C=C1C(=O)OC[C@@H]1CCOC(=O)Nc1ccc(I)cc1` are 0.79 µM, > 94% and 12.5 µM.
`C=C1C(=O)OC[C@H]1CCOC(=O)Nc1cccc(Br)c1`: in the series with RAW264.7 [1], the IC50 was 0.59 µM. In the series on RAW264.7 [2], the inhibition at 25 µM was > 94%. Further, the midpoint of cytotoxicity in series [3], the CC50 at 18 h, lay at 21.8 µM.
The like results for `C=C1C(=O)OC[C@@H]1CCOC(=O)Nc1ccc(Br)cc1` were, in that order, 0.72 µM, > 94% and 19.8 µM.
The like results for `C=C1C(=O)OC[C@@H]1CCOC(=O)Nc1ccccc1` were, in that order, 0.78 µM, > 94% and 22.3 µM.
The like results for `C=C1C(=O)OC[C@@H]1CCOC(=O)Nc1ccc(F)cc1F` were, in that order, 0.7 µM, > 94% and 14.8 µM.

The term IC50 denotes the point on the concentration scale where inhibition reaches its midpoint. Usually inhibition stands for the share of the control response that was lost under treatment. For orientation: CC50 means the concentration giving 50% cytotoxicity.
